Earlier results as cited in patent publication US20250339472A1 (priority 2024, published 2025).
Like-named read-outs stand apart in the source and are kept apart here.

Legend:
[1] = dog, in vivo
[2] = biological target: acetylcholinesterase (Homo sapiens, UniProt P22303)
Sequence of acetylcholinesterase (P22303 32-614, species assumed): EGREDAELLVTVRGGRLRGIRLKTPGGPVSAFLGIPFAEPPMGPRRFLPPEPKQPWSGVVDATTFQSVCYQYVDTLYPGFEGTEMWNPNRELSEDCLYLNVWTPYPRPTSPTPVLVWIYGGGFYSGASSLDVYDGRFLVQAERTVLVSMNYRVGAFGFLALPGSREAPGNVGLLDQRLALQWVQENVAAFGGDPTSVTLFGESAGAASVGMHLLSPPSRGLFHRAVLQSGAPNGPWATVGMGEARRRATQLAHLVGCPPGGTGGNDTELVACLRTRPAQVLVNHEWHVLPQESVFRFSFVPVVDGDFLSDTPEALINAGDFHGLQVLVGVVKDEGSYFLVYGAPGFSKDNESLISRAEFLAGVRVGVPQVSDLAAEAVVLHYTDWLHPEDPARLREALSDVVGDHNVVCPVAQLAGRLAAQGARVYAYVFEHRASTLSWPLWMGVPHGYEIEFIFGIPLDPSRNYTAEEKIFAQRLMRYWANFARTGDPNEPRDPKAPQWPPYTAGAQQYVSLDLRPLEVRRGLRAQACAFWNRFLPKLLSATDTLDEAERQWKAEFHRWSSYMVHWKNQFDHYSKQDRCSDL

For `CC1=C(/C=C/C(C)=C/C=C/C(C)=C/C=C/C=C(C)/C=C/C=C(C)/C=C/C2=C(C)C(=O)[C@@H](O)CC2(C)C)C(C)(C)C[C@H](O)C1=O` [Astaxanthin—AstaReal®, Astaxanthin], the efficacy levels [1] is listed as 0.3 mg/kg/day.
In the case of `COc1cc(/C=C/C(=O)CC(=O)/C=C/c2ccc(O)c(OC)c2)ccc1O` [Curcumin], the “inhibition of acetylcholinesterase activity” value [2] is listed as “inhibits”.
In the case of Hyaluronic Acid, the Safety levels (more than 26 kg body weight) is listed as 54 mg of HA per day and the Safety levels (up to 26 kg body weight) is listed as 27 mg of HA per day.
